The test system of one experiment is cotton. In words: Preemergent control of plant species. As to conditions: Gossypium hirsutum, pre-emergence, 336 h; 0.25 lb/acre; read-out: percent preemergent control. In kind it is in vivo, Gossypium spp. Put shortly: (§1)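 Growth reduction relative to untreated plants of the same species, assessed two weeks after treatment, defines the control value. Compositions, mostly aqueous emulsions, were deposited uniformly on seeded greenhouse soil beds at the tabulated rates, with a water-treated bed as reference.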

In another experiment the test system is rape. Description: Preemergent control of plant species. The format is in vivo, Brassica napus. As to conditions: Brassica napus, pre-emergence, 336 h; 0.25 lb/acre; read-out: percent preemergent control. Put shortly:
as §1

For the next experiment, the system named is soybean. In words: Preemergent control of plant species. In kind it is in vivo, Glycine max. As to conditions: Glycine max, pre-emergence, 336 h; 0.25 lb/acre; read-out: percent preemergent control. Put shortly:
as §1

For another experiment, the system named is sugar beet. Description: Preemergent control of plant species. The format is in vivo, Beta saccharifera. As to conditions: Beta vulgaris, pre-emergence, 336 h; 0.25 lb/acre; read-out: percent preemergent control. Put shortly: as §1
In another experiment the test system is jimsonweed. In words: Preemergent control of plant species. As to conditions: Datura stramonium, pre-emergence, 336 h; 0.25 lb/acre; read-out: percent preemergent control. The format is in vivo, Datura stramonium. Summed up: as §1
The subject of another experiment is annual morning glory. Description: Preemergent control of plant species. In kind it is in vivo, Ipomoea spp. As to conditions: Ipomoea, pre-emergence, 336 h; 0.25 lb/acre; read-out: percent preemergent control. Summed up: as §1
The subject of a further experiment is velvetleaf. Description: Preemergent control of plant species. As to conditions: Abutilon theophrasti, pre-emergence, 336 h; 0.25 lb/acre; read-out: percent preemergent control. The format is in vivo, Abutilon theophrasti. Summed up:
as §1

For another experiment, the system named is corn. Description: Preemergent control of plant species. In kind it is in vivo, Zea mays. As to conditions: Zea mays, pre-emergence, 336 h; 0.25 lb/acre; read-out: percent preemergent control. Put shortly:
as §1

The test system of the next experiment is rice. In words: Preemergent control of plant species. In kind it is in vivo, Oryza sativa. As to conditions: Oryza sativa, pre-emergence, 336 h; 0.25 lb/acre; read-out: percent preemergent control. Summed up:
as §1

In the next experiment the test system is wheat. In words: Preemergent control of plant species. In kind it is in vivo, Triticum aestivum. As to conditions: Triticum aestivum, pre-emergence, 336 h; 0.25 lb/acre; read-out: percent preemergent control. Put shortly:
as §1

For another experiment, the system named is barnyardgrass. Description: Preemergent control of plant species. The format is in vivo, Echinochloa crusgalli. As to conditions: Echinochloa crus-galli, pre-emergence, 336 h; 0.25 lb/acre; read-out: percent preemergent control. Summed up:
as §1

In a further experiment the test system is johnson grass. Description: Preemergent control of plant species. In kind it is in vivo, Sorghum halepense. As to conditions: Sorghum halepense, pre-emergence, 336 h; 0.25 lb/acre; read-out: percent preemergent control. Put shortly:
as §1

Another experiment has as its system wild oats. In words: Preemergent control of plant species. In kind it is in vivo. As to conditions: Avena fatua, pre-emergence, 336 h; 0.25 lb/acre; read-out: percent preemergent control. Here is the method: The seeds of various species of plants were planted in beds of good agricultural soil in a greenhouse. A number of compositions of the present invention, generally in the nature of an aqueous emulsion, were applied at rates listed in the table so as to deposit a predetermined amount of active ingredients uniformly throughout the surface of the bed. Another seed bed was treated only with water to serve as a control. After treatment the seed beds were maintained for two weeks under greenhouse conditions conducive for good plant growth and watered as necessary. Control refers to the reduction in growth compared to the observed results of the same untreated species.

Another experiment concerns yellow foxtail. Description: Preemergent control of plant species. In kind it is in vivo, Setaria lutescens. As to conditions: Setaria, pre-emergence, 336 h; 0.25 lb/acre; read-out: percent preemergent control. Summed up:
as §1

A further experiment concerns yellow nutsedge. Description: Preemergent control of plant species. The format is in vivo, Cyperus esculentus. As to conditions: Cyperus, pre-emergence, 336 h; 0.25 lb/acre; read-out: percent preemergent control. Put shortly: as §1
Experiment [1] deals with nitrification of ammonium nitrogen. In words: Suppression of nitrification of ammonium nitrogen in soil. As to conditions: 27° C. Put shortly:
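Soil (20 g) moistened to its 1/3 bar tension value, mixed with test chemical and incubated sealed for two weeks at 27° C. Nitrate extracted with ammonium sulfate solution and measured by nitrate-specific ion electrode; value given as % NH4-N remaining.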

The test system of a further experiment is sorghum. Description: Preemergent control of plant species. The format is in vivo, Sorghum vulgare. As to conditions: Sorghum, pre-emergence, 336 h; 0.25 lb/acre; read-out: percent preemergent control. Put shortly:
as §1

For the compound `Cc1cnc2nc(S(=O)(=O)Nc3c(Cl)cccc3Cl)nn2c1` [Compound 192], the plant injury at 280.212 g/ha is 95% with cotton; 100% in the experiment on rape; 90% with soybean; 100% with sugar beet; 10% with corn; 0% with rice. For the same compound, in the experiment on wheat, the plant injury at 280.212 g/ha came to 0%. Also, the pest or weed control at 280.212 g/ha in the experiment on jimsonweed came out at 100%; in the experiment with annual morning glory, 97%; in the experiment on velvetleaf it was 100%; with barnyardgrass, 0%; in the experiment with johnson grass, 0%; in the experiment with wild oats, 0%. Further, the pest or weed control at 280.212 g/ha in the experiment with yellow foxtail came out at 70%; with yellow nutsedge it was 90%. Further, the “% NH4-N Remaining After 2 Weeks Incubation” value in [1] (0.06 ppm) stood at 21%; in experiment [1] (0.25 ppm), 48%; in experiment [1] (1 ppm) it was 74%; in experiment [1] (4 ppm), 86%.

On to `Cc1ccn2nc(S(=O)(=O)Nc3c(C)cccc3Cl)nc2n1` [Compound 144], for which the plant injury at 280.212 g/ha in the experiment on cotton was determined as 100%; in the experiment on rape, 100%; in the experiment with soybean it was 60%; with sugar beet, 100%; in the experiment with corn it was 70%; in the experiment with rice, 40%. For the same compound, the plant injury at 280.212 g/ha in the experiment on wheat came out at 0%. In addition, the pest or weed control at 280.212 g/ha in the experiment on jimsonweed amounted to 100%; in the experiment with annual morning glory, 95%; with velvetleaf it was 100%; in the experiment on barnyardgrass, 80%; in the experiment with johnson grass, 100%; in the experiment with wild oats it was 70%. Further, the pest or weed control at 280.212 g/ha in the experiment with yellow foxtail and in the experiment with yellow nutsedge was 100% each time. Moreover, the “% NH4-N Remaining After 2 Weeks Incubation” value in experiment [1] (0.06 ppm) came out at 16%; in experiment [1] (0.25 ppm), 43%; in experiment [1] (1 ppm), 63%; in [1] (4 ppm) it was 92%.

As for `Cc1cc(C)n2nc(S(=O)(=O)Nc3c(F)cccc3C(=O)OC(C)(C)C)nc2n1` [Compound 56], the plant injury at 280.212 g/ha came to 0% in the experiment with cotton; 100% in the experiment with rape; 0% in the experiment with soybean; 100% in the experiment on sugar beet; 30% in the experiment on corn; 0% with rice. In addition, the plant injury at 280.212 g/ha in the experiment with wheat worked out at 0%. Also, the pest or weed control at 280.212 g/ha amounted to 0% with jimsonweed; 90% in the experiment on annual morning glory; 50% with velvetleaf; 0% with barnyardgrass; 0% in the experiment on johnson grass; 0% in the experiment on wild oats. In addition, the pest or weed control at 280.212 g/ha was found to be 20% with yellow foxtail and 70% with yellow nutsedge. In addition, the “% NH4-N Remaining After 2 Weeks Incubation” value in [1] (0.06 ppm) is 0%; in [1] (0.25 ppm), 37%; in experiment [1] (1 ppm), 59%; in experiment [1] (4 ppm), 78%.

Regarding `Cc1ccc(Cl)c(NS(=O)(=O)c2nc3nc(C)c(Cl)c(C)n3n2)c1Cl` [Compound 199], the plant injury at 280.212 g/ha came to 20% in the experiment on cotton; 100% in the experiment with rape; 70% in the experiment on soybean; 90% in the experiment with sugar beet; 0% in the experiment on corn; 0% with rice. The pest or weed control at 280.212 g/ha in the experiment on jimsonweed was determined as 0%; with annual morning glory, 20%; in the experiment with velvetleaf, 70%; in the experiment with johnson grass, 0%; in the experiment on wild oats, 0%; in the experiment with yellow foxtail, 0%. In addition, in the experiment with yellow nutsedge, the pest or weed control at 280.212 g/ha came out at 0%. The “% NH4-N Remaining After 2 Weeks Incubation” value was 40% in experiment [1] (0.06 ppm), 63% in [1] (0.25 ppm), 78% in experiment [1] (1 ppm) and 88% in experiment [1] (4 ppm).

Take `Cc1cn2nc(S(=O)(=O)Nc3c(Cl)cccc3Cl)nc2nc1C` [Compound 205]: the plant injury at 280.212 g/ha was 100% in the experiment on cotton; 100% in the experiment on rape; 90% in the experiment on soybean; 100% in the experiment with sugar beet; 95% with corn; 50% in the experiment on rice. For the same compound, in the experiment on wheat, the plant injury at 280.212 g/ha came out at 0%. The pest or weed control at 280.212 g/ha in the experiment with jimsonweed was 100%; in the experiment with annual morning glory it was 75%; in the experiment with velvetleaf it was 100%; with barnyardgrass, 50%; in the experiment with johnson grass, 0%; in the experiment on wild oats it was 50%. The pest or weed control at 280.212 g/ha was 0% in the experiment on yellow foxtail and 70% with yellow nutsedge. The “% NH4-N Remaining After 2 Weeks Incubation” value came to 32% in experiment [1] (0.06 ppm), 38% in [1] (0.25 ppm), 76% in experiment [1] (1 ppm) and 81% in experiment [1] (4 ppm).

For `CCC(=O)N(c1c(F)cccc1F)S(=O)(=O)c1nc2nc(C)ccn2n1` [Compound 276], the plant injury at 280.212 g/ha with cotton is 80%; in the experiment on rape it was 100%; in the experiment with soybean, 10%; with sugar beet it was 100%; with corn, 60%; in the experiment on rice, 90%. Further, the plant injury at 280.212 g/ha worked out at 100% with sorghum and 80% with wheat. Moreover, the pest or weed control at 280.212 g/ha in the experiment with jimsonweed came to 100%; with annual morning glory, 90%; in the experiment with velvetleaf, 100%; in the experiment on barnyardgrass, 100%; with johnson grass it was 90%; in the experiment with yellow foxtail, 100%. Further, the pest or weed control at 280.212 g/ha in the experiment with yellow nutsedge came to 100%.

`Cc1ccc(Cl)c(NS(=O)(=O)c2nc3ncccn3n2)c1Cl` [Compound 139]: the plant injury at 280.212 g/ha in the experiment on cotton stood at 100%; in the experiment on rape, 100%; with soybean, 50%; in the experiment on sugar beet, 100%; in the experiment on corn, 70%; in the experiment with rice, 90%. For the same compound, the results for the plant injury at 280.212 g/ha in the experiment on sorghum and in the experiment with wheat were 100% and 80%, respectively. Further, the pest or weed control at 280.212 g/ha in the experiment on jimsonweed was determined as 100%; with annual morning glory, 90%; in the experiment on velvetleaf, 100%; in the experiment on barnyardgrass it was 80%; with johnson grass, 100%; in the experiment on yellow foxtail, 100%. Moreover, the pest or weed control at 280.212 g/ha in the experiment with yellow nutsedge was determined as 100%.

The record behind these values is patent US4740233A, “Substituted 1,2,4-triazolo[1,5-a]-pyrimidine-2-sulfonamides and compositions and methods of controlling undesired vegetation and suppressing the nitrification of ammonium nitrogen in soil” (The Dow Chemical Company, priority 1986, dated 1988).
